Data published in patent US20090053168A1, “TREATMENTS OF B-CELL PROLIFERATIVE DISORDERS” (priority 2007, published 2009).
Where two headings read alike, the source gives them in different places. One block for each compound: values may come before it.

What was measured:
[1] = test system: GA-10 (Burkitt's lymphoma) cells; experiment: Anti-proliferation assay (ATPLite, 72 h), GA-10; assay type: cell-based; settings: x dexamethasone
[2] = test system: Farage (non-Hodgkin's B cell lymphoma) cells; experiment: Anti-proliferation assay (ATPLite, 72 h), Farage; assay type: cell-based; settings: x dexamethasone
MM.1S cells [3] = experiment: Anti-proliferation assay (ATPLite, 72 h), MM.1S; settings: for IC50: read-out: IC50 (no IL-6); for activity and synergy in antiproliferation assays: RPMI-8226, H929, MM.1S and MM.1R MM cell lines; for percent inhibition of cell proliferation: DEX 0 nM, MM.1S
H929 cells = experiment: Anti-proliferation assay (ATPLite, 72 h), H929; assay type: cell-based; settings: combination with dexamethasone; Loewe-based Synergy Score; 72 h
MM.1S cells [4] = test system: MM.1S cells
RPMI-8226 cells = experiment: Anti-proliferation assay (ATPLite, 72 h), RPMI-8226; assay type: cell-based; settings: combination with dexamethasone; Loewe-based Synergy Score; 72 h
[5] = test system: mantle cell lymphoma cell line JVM-13; experiment: Anti-proliferation assay (ATPLite, 72 h), JVM-13; assay type: cell-based, human
Experimental: (§1) All of the cell lines were cultured in RPMI-1640 media supplemented with 10% FBS except OCI Ly10 cells (IMDM media supplemented with 20% human serum). The ANBL-6 cell line culture media also contained 10 ng/ml IL-6. MM.1S, MM.1R, SU-DHL6, Karpas 422, and OCI ly10 cells were provided by the Dana Farber Cancer Institute. ANBL-6 cells were provided by Bob Orlowsli (M.D. Anderson Cancer Research Center). H929, RPMI-8226, GA-10, Farage, Mino, JVM-13, Pfeiffer, Toledo, and Kusami-1 cells were from ATCC (Cat #'s CCL-155, CRL-9068, CRL-2392 CRL-2630, CRL-3000, CRL-3003, CRL-2632, CRL-2631, and CRL-2724 respectively). MOLP-8, OPM2, EJM, and KSM-12-PE cells were from DSMZ.
(§2) Compounds were prepared in DMSO at 1000× the highest desired concentration. Master plates were generated consisting of serially diluted compounds in 2- or 3-fold dilutions in 384-well format. For single agent dose response curves, the master plates consisted of 9 individual compounds at 12 concentrations in 2- or 3-fold dilutions. For combination matrices, master plates consisted of individual compounds at 6 or 9 concentrations at 2- or 3-fold dilutions.
(§3) The average untreated well value (avg. untreated wells) is the arithmetic mean of 40 wells from the same assay plate treated with vehicle alone. Negative inhibition values result from local variations in treated wells as compared to untreated wells.
(§4) The uncertainty of each fitted parameter was estimated from the range over which the change in reduced chi-squared was less than one, or less than minimum reduced chi-squared if that minimum exceeded one, to allow for underestimated σI errors.
(§5) Single agent curve data were used to define a dilution series for each compound to, be used for combination screening in a 6×6 matrix format. […] For compounds with no detectable single agent activity, a dilution factor of 4 was used, starting from the highest achievable concentration.
(§6) The Loewe additivity model was used to quantify combination effects. Combinations were ranked initially by Additivity Excess Volume, which is defined as ADD Volume=ΣCX, CY(Idata−ILoewe). where ILoewe(CX,CY) is the inhibition that satisfies (CX/ECX)+(CY/ECY)=1, and ECX,Y are the effective concentrations at ILoewe for the single agent curves. A “Synergy Score” was also used, where the Synergy Score S=log fX log fY ΣIdata (Idata−ILoewe), summed over all non-single-agent concentration pairs, and where log fX,Y is the natural logarithm of the dilution factors used for each single agent.

[6] = test system: mantle cell lymphoma cell line Mino; experiment: Anti-proliferation assay (ATPLite, 72 h), Mino; assay type: cell-based, human
Experimental: as §1, §2, §3, §4, §5, §6

[7] = Homo sapiens, MM1.S, read-out: percent inhibition of cell proliferation

IC50 (MM.1S cells [3]; Homo sapiens, MM1.S): 623 nM
SMILES: NCCNC(=O)Cc1ccc(NC(=O)Cc2ccc(Nc3ncnc4c3ncn4[C@@H]3O[C@H](CO)[C@@H](O)[C@H]3O)cc2)cc1 [ADAC, N-(4-(2-((4-(2-((2-aminoethyl)amino)-2-oxoethyl)phenyl)amino)-2-oxoethyl)phenyl)-Adenosine]
synergy score [1]: 2.43
synergy score [2]: 2.28
inhibition at 1.17 µM (MM.1S cells [3]; [7]): 80%
inhibition at 3.51 µM (MM.1S cells [3]; [7]): 75%
inhibition at 10.5 µM (MM.1S cells [3]; [7]): 82%
inhibition at 31.6 µM (MM.1S cells [3]; [7]): 82%
activity and synergy in antiproliferation assays (MM.1S cells [3]): active and synergistic

IC50 (MM.1S cells [3]; Homo sapiens, MM1.S): 838 nM
SMILES: CNC(=O)[C@H]1O[C@@H](n2cnc3c(NCc4cccc(I)c4)nc(Cl)nc32)[C@H](O)[C@@H]1O [Chloro-IB-MECA, 2-chloro-N^6-(3-iodobenzyl)-5′-N-methylcarboxamidoadenosine]
Synergy score with dexamethasone, H929 (H929 cells): 5.29
Percent inhibition of cell growth by Chloro-IB-MECA (MM.1S cells [4]; Cl-IB-MECA 0.19 μM, 78 nM SCH58261): 5.2%
Percent inhibition of cell growth by Chloro-IB-MECA (MM.1S cells [4]; Cl-IB-MECA 0.19 μM, 87 nM MRS1523): 19%
Percent inhibition of cell growth by Chloro-IB-MECA (MM.1S cells [4]; Cl-IB-MECA 0.19 μM, 89 nM DPCPX): 7.4%
Percent inhibition of cell growth by Chloro-IB-MECA (MM.1S cells [4]; Cl-IB-MECA 0.19 μM, 89 nM MRS1754): 25%
Percent inhibition of cell growth by Chloro-IB-MECA (MM.1S cells [4]; Cl-IB-MECA 0.19 μM, 150 nM SCH58261): −3.8%
Percent inhibition of cell growth by Chloro-IB-MECA (MM.1S cells [4]; Cl-IB-MECA 0.19 μM, 170 nM MRS1523): 26%
Percent inhibition of cell growth by Chloro-IB-MECA (MM.1S cells [4]; Cl-IB-MECA 0.19 μM, 174 nM DPCPX): 12%
Percent inhibition of cell growth by Chloro-IB-MECA (MM.1S cells [4]; Cl-IB-MECA 0.19 μM, 175 nM MRS1754): 21%
Percent inhibition of cell growth by Chloro-IB-MECA (MM.1S cells [4]; Cl-IB-MECA 0.19 μM, no antagonist): 20%
Percent inhibition of cell growth by Chloro-IB-MECA (MM.1S cells [4]; Cl-IB-MECA 1.5 μM, 78 nM SCH58261): 8.1%
Percent inhibition of cell growth by Chloro-IB-MECA (MM.1S cells [4]; Cl-IB-MECA 1.5 μM, 87 nM MRS1523): 54%
Percent inhibition of cell growth by Chloro-IB-MECA (MM.1S cells [4]; Cl-IB-MECA 1.5 μM, 89 nM DPCPX): 47%
Percent inhibition of cell growth by Chloro-IB-MECA (MM.1S cells [4]; Cl-IB-MECA 1.5 μM, 89 nM MRS1754): 50%
Percent inhibition of cell growth by Chloro-IB-MECA (MM.1S cells [4]; Cl-IB-MECA 1.5 μM, 150 nM SCH58261): 4.3%
Percent inhibition of cell growth by Chloro-IB-MECA (MM.1S cells [4]; Cl-IB-MECA 1.5 μM, 170 nM MRS1523): 61%
Percent inhibition of cell growth by Chloro-IB-MECA (MM.1S cells [4]; Cl-IB-MECA 1.5 μM, 174 nM DPCPX): 46%
Percent inhibition of cell growth by Chloro-IB-MECA (MM.1S cells [4]; Cl-IB-MECA 1.5 μM, 175 nM MRS1754): 45%
Percent inhibition of cell growth by Chloro-IB-MECA (MM.1S cells [4]; Cl-IB-MECA 1.5 μM, no antagonist): 61%
Percent inhibition of cell growth by Chloro-IB-MECA (MM.1S cells [4]; Cl-IB-MECA 3.1 μM, 78 nM SCH58261): 28%
Percent inhibition of cell growth by Chloro-IB-MECA (MM.1S cells [4]; Cl-IB-MECA 3.1 μM, 87 nM MRS1523): 69%
Percent inhibition of cell growth by Chloro-IB-MECA (MM.1S cells [4]; Cl-IB-MECA 3.1 μM, 89 nM DPCPX): 64%
Percent inhibition of cell growth by Chloro-IB-MECA (MM.1S cells [4]; Cl-IB-MECA 3.1 μM, 89 nM MRS1754): 71%
Percent inhibition of cell growth by Chloro-IB-MECA (MM.1S cells [4]; Cl-IB-MECA 3.1 μM, 150 nM SCH58261): 16%
Percent inhibition of cell growth by Chloro-IB-MECA (MM.1S cells [4]; Cl-IB-MECA 3.1 μM, 170 nM MRS1523): 74%
Percent inhibition of cell growth by Chloro-IB-MECA (MM.1S cells [4]; Cl-IB-MECA 3.1 μM, 174 nM DPCPX): 60%
Percent inhibition of cell growth by Chloro-IB-MECA (MM.1S cells [4]; Cl-IB-MECA 3.1 μM, 175 nM MRS1754): 72%
Percent inhibition of cell growth by Chloro-IB-MECA (MM.1S cells [4]; Cl-IB-MECA 3.1 μM, no antagonist): 70%
synergy score [2]: 3.17
percent inhibition of cell proliferation (MM.1S cells [3]; Cl-IB-MECA 0.352 nM, 72 h): 16%
percent inhibition of cell proliferation (MM.1S cells [3]; Cl-IB-MECA 1.06 nM, 72 h): 5.9%
percent inhibition of cell proliferation (MM.1S cells [3]; Cl-IB-MECA 3.16 nM, 72 h): 6.3%
percent inhibition of cell proliferation (MM.1S cells [3]; Cl-IB-MECA 9.49 nM, 72 h): 9.1%
percent inhibition of cell proliferation (MM.1S cells [3]; Cl-IB-MECA 28.5 nM, 72 h): −0.6%
percent inhibition of cell proliferation (MM.1S cells [3]; Cl-IB-MECA 85.4 nM, 72 h): 6.3%
percent inhibition of cell proliferation (MM.1S cells [3]; Cl-IB-MECA 256 nM, 72 h): 27%
percent inhibition of cell proliferation (MM.1S cells [3]; Cl-IB-MECA 769 nM, 72 h): 71%
activity and synergy in antiproliferation assays (MM.1S cells [3]): active and synergistic
Synergy score with dexamethasone, MM.1S (MM.1S cells [3]; combination with dexamethasone, Loewe-based Synergy Score, 72 h): 8.37
Synergy score with dexamethasone, RPMI-8226 (RPMI-8226 cells): 5.61

SMILES: COC1=C2C[C@@H](C)C[C@H](OC)[C@H](O)[C@@H](C)/C=C(\C)[C@H](OC(N)=O)[C@@H](OC)/C=C\C=C(/C)C(=O)NC(=CC1=O)C2=O [Geldanomycin]
percent inhibition of cell proliferation ([5]; Geldanomycin 0.0064 μM alone): −5.8%
percent inhibition of cell proliferation ([5]; Geldanomycin 0.019 μM alone): −7.8%
percent inhibition of cell proliferation ([5]; Geldanomycin 0.057 μM alone): 7.6%
percent inhibition of cell proliferation ([5]; Geldanomycin 0.17 μM alone): 12%
percent inhibition of cell proliferation ([5]; Geldanomycin 0.52 μM alone): 19%
percent inhibition of cell proliferation ([6]; Geldanomycin 0.0064 μM alone): 4.7%
percent inhibition of cell proliferation ([6]; Geldanomycin 0.019 μM alone): 4.3%
percent inhibition of cell proliferation ([6]; Geldanomycin 0.057 μM alone): 6.7%
percent inhibition of cell proliferation ([6]; Geldanomycin 0.17 μM alone): 14%
percent inhibition of cell proliferation ([6]; Geldanomycin 0.52 μM alone): 27%
